These are literature values, as cited in US7452892B2, “Triazolopyrimidine cannabinoid receptor 1 antagonists” (Bristol-Myers Squibb Company, priority 2005, dated 2008).

Each structure is given as a SMILES string.

For data set [1] the following is noted: chronic administration for two weeks.
The conditions of data set [2]: 16 week trial period.

For `Cc1c(C(=O)NN2CCCCC2)nn(-c2ccc(Cl)cc2Cl)c1-c1ccc(I)cc1` [AM-251], in data set [1], the body weight result is reported as “substantial body weight reduction”.

As to `Cc1c(C(=O)NN2CCCCC2)nn(-c2ccc(Cl)cc2Cl)c1-c1ccc(Cl)cc1` [SR-141716], in data set [2], the “body weight in human subjects” value is “dose-dependently reduced body weight”.
